Experimental data taken from US20260283983A1, “PHARMACEUTICAL COMPOSITIONS FOR WOUND CARE” (BIO PROTECTANT TECHNOLOGIES, INC., priority 2023, published 2026).
In brackets after ≈: the same amount, converted by molar mass. Where a SMILES comes first, the peptide text is derived from it. Bridges are numbered along the chain shown (N, C = ends). [ ]: non-standard residue; d: D form. The star is where a group is joined. Ileψ(thiazoline)Cys = CC[C@H](C)[C@H](N)C1=N[C@H](C(=O)*)CS1; dOrn = NCCC[C@@H](N)C(=O)O

Assays:
[1] = tested on: Bioluminescent CA-MRSA strain MW2; assay: MIC and MBC determination, bioluminescent CA-MRSA strain MW2; assay type: cell-based, S. aureus; settings: Staphylococcus aureus
Excerpt: (§1) The MIC and MBC of Formulation B was initially determined using a panel of S. aureus strains (Table 1) including laboratory S. aureus ATCC 6538, bioluminescent S. aureus strain Newman, bioluminescent CA-MRSA strain MW2, and a MRSA clinical isolate.

MRSA clinical isolate = assay: MIC and MBC determination, MRSA clinical isolate; assay type: cell-based, S. aureus; settings: Staphylococcus aureus
Excerpt: as §1

S. aureus ATCC 6538 = assay: MIC and MBC determination, S. aureus ATCC 6538; assay type: cell-based; settings: Staphylococcus aureus
Excerpt: as §1

[2] = tested on: bioluminescent MRSA (CA-MRSA); assay: Murine model of wound healing (biopsy punch) infected with bioluminescent MRSA; assay type: in vivo; settings: mice infected with 1×10^5 CFU bioluminescent MRSA; 20 μL topically three times daily; two week period; FIG. 1A
Experimental: An exemplary formulation (Formulation A) was tested in the murine model of wound healing (Dunn, Louise, et al. “Murine model of wound healing.” Journal of Visualized Experiments. 75 (2013): e50265-e50265).
• Biopsy punch model performed • Infected with 1×10^5 CFUs bioluminescent MRSA
Wound was imaged then treated with Formulation A
The animals were treated topically with 20 μL of Formulation A, bacitracin, or vehicle three times daily and imaged
The animals were imaged, weight, and their wound was measured daily
The animals were sacrificed and the bacterial burdens were checked in the wound, the liver, the spleen, and the blood.
Tracking of infection and wound healing in mice infected with 1×10^5 CFU bioluminescent MRSA and treated with 20 μL Formulation A, bacitracin (positive control), or vehicle control (N=5 for each treatment group). FIG. 1A: average radiance in the wound bed detected over a two week period. […] Statistical analysis was conducted in GraphPad Prism 6 using a two-way ANOVA test: ***p<0.001; ****p<0.0001. FIG. 1B: box and whisker plots of the wound area over time, beginning on day 4 after the removal of the surgical wound dressing. […] FIG. 1C: plot of the change in weight through the duration of infection and treatment.

[3] = tested on: Bioluminescent S. aureus strain Newman; assay: MIC and MBC determination, bioluminescent S. aureus strain Newman; assay type: cell-based; settings: Staphylococcus aureus
Excerpt: as §1

S. mutans = S. mutans quantitative biofilm reduction assay; assay type: cell-based; settings: same treatment concentration; FIG. 6A-6C
Experimental: • Day 1: O/N culture of S. mutans • Day 2: Dilute O/N culture 1:9 in BHI • Place discs in 2 mL diluted culture and incubate 24 h • Day 3 Transfer discs to 2 mL BMGS (culture in BMGS for 1-3 days) • Day 4 1-Day: Transfer discs to 2 mL sterilants for desired incubation time • Transfer discs back to 2 mL BMGS for 24 h • 2-Day: Transfer discs to 2 mL BMGS and incubate for another 24 h • Day 5 1-Day: Sonicate disc and plate 100 μL of different dilutions • 2-Day: Transfer discs to 2 mL sterilants for desired incubation time • Transfer discs back to 2 mL BMGS for 24 h • Day 6 1-Day: Count plates • 2-Day: Sonicate disc and plate 100 μL of different dilutions • Day 7 Count plates

[4] = read-out: Minimum Bactericidal Concentration
[5] = read-out: Minimum Inhibitory Concentration

| Compound | MBC [1, 4] [µg/mL] | MIC [1, 5] [µg/mL] | MBC (MRSA clinical isolate; [4]) [µg/mL] | MIC (MRSA clinical isolate; [5]) [µg/mL] | MBC (S. aureus ATCC 6538; ATCC6538, read-out: Minimum Bactericidal Concentration) [µg/mL] | MIC (S. aureus ATCC 6538; ATCC6538, read-out: Minimum Inhibitory Concentration) [µg/mL] | bacterial burden, average radiance in the wound bed [2] | MBC [3, 4] [µg/mL] | MIC [3, 5] [µg/mL] | biofilm accumulation after treatment (S. mutans) |
| --- | --- | --- | --- | --- | --- | --- | --- | --- | --- | --- |
| CC[C@H](C)[C@H](N)C1=N[C@H](C(=O)N[C@@H](CC(C)C)C(=O)N[C@H](CCC(=O)O)C(=O)N[C@H](C(=O)N[C@H]2CCCCNC(=O)[C@H](CC(N)=O)NC(=O)[C@@H](CC(=O)O)NC(=O)[C@H](Cc3cnc[nH]3)NC(=O)[C@@H](Cc3ccccc3)NC(=O)[C@H]([C@@H](C)CC)NC(=O)[C@@H](CCCN)NC2=O)[C@@H](C)CC)CS1 [Bacitracin] ({Ileψ(thiazoline)Cys}-L[dE]IK[dOrn]I[dF]H[dD]N; lactam 4-C) | 333 (≈ 234 µM) | 67 (≈ 47.1 µM) | 67 (≈ 47.1 µM) | 67 (≈ 47.1 µM) | 67 (≈ 47.1 µM) | 67 (≈ 47.1 µM) | completely cleared infection within the first day | 333 (≈ 234 µM) | 67 (≈ 47.1 µM) | – |
| C12-C14 alkyl(ethylbenzyl)dimethylammonium chloride | – | – | – | – | – | – | – | – | – | approximate equivalence |
| CCCCCCCCCCCCC[N+](C)(C)Cc1ccccc1 [BAK, benzalkonium chloride] | – | – | – | – | – | – | – | – | – | approximate equivalence |
